# From patent publication US20170073306A1, “POTENT INHIBITORS OF HUMAN CARBONIC ANHYDRASE II AND BOVINE CARBONIC ANHYDRASE II AND THEIR MECHANISM OF ACTION” (priority 2015, published 2017)
# Assays:
# [1] = biological target: T1, Bovine Carbonic Anhydrase-II (bovine erythrocyte CA-II) (Bos taurus, UniProt P00921); assay: Bovine carbonic anhydrase-II inhibition, 4-nitrophenyl acetate spectrophotometric assay; format: biochemical; settings: 4-nitrophenyl acetate 0.7 mM, pH 7.4, 15 min preincubation; read-out: IC50 ± S.E.M. BCA-II
# T1 construct: pure bovine erythrocyte CA-II; from tissue; host or cells: bovine erythrocytes
# Description: (§1) Nineteen different analogues of benzamide sulfonamides were evaluated for carbonic anhydrase-II inhibition. The rate of catalyzed reaction was monitored by the amount of product formation by using the chromogenic substrate i.e., 4-nitrophenyl acetate.
# 4-Nitrophenyl acetate (4-NPA) is a colorless compound which is used as a substrate in carbonic anhydrase inhibition assay. The reaction involves the hydrolysis of 4-nitrophenyl acetate into […] and 4-nitrophenol a yellow colored compound. During this experiment, HEPES-tris buffer was used at 20 mM concentration with pH 7.4.
# After 15 min of incubation of the enzyme with the test compound, the substrate was added to initiate the reaction. The reaction was carried out in triplicate with different concentrations of test compounds was used.
# In this assay protocol, the reaction was performed by using a 96-well flat bottom plate.
# The amount of product formation was measured at 400 nm for 30 min with 1 min interval, multiplate reader SPECTRA max 340 (Molecular Devices, CA, USA) was used to monitor the product formation.
# The enzyme inhibitory activities were calculated using the following formula:
# % Inhibition=100−(O.D of test/O.D of control)*100
# (§2) Where test is the enzyme activity with sample and control is the enzyme activity without sample. The IC50 of the compounds were calculated by using EZ-Fit Enzyme Kinetic Program (Perrella Scientific Inc. Amhrest, U.S.A).
# [2] = biological target: T2, Human Carbonic Anhydrase-II (human erythrocyte CA-II) (Homo sapiens, UniProt P00918); assay: HCA-II inhibitory activity, 4-nitrophenyl acetate spectrophotometric assay; format: biochemical; settings: 4-nitrophenyl acetate 0.7 mM, pH 7.4, 25° C., 15 min preincubation; read-out: IC50 ± S.E.M. HCA-II
# T2 construct: purified human erythrocyte CA-II; from tissue; host or cells: human erythrocytes
# Description: as §1
# Hydrolysis of 4-NPA (a colorless compound): yields 4-nitrophenol and […]. The reaction is monitored by quantifying the formation of 4-nitrophenol, a yellow colored compound.
# In successive experiments, HEPES-tris was used as a buffer for the reaction at final concentration of 20 mM, with 7.4 pH. The total reaction volume of 200 μL includes, 140 μL of the HEPES-tris, 20 μL of test compound diluted in DMSO (20 μL of DMSO as a control sample), 20 μL of purified human erythrocyte CA-II (0.1 mg/mL) prepared in deionized water and 20 μL of a solution of 4-NPA (0.7 mM diluted in ethanol). Adhesion of enzyme with the plastic-ware was avoided by the addition of bovine serum albumin (1 mg/mL).
# The 20 μL of test compound was incubated with enzyme for a period of 15 min. The rate of product formation was monitored with the addition of 20 μL substrate prepared in ethanol at a final concentration of 0.7 mM 4-nitrophenyl acetate at 25° C. for a period of 30 min with regular interval of 1 min.
# The assay was performed in triplicates by using 96-well flat bottom plate.
# The enzyme inhibitory activities were calculated using the following formula: […]
# as §2
# [3] = MTT cytotoxicity assay; format: cell-based; settings: mouse, 3T3 mouse fibroblast cells, 3T3 cells, 50% growth inhibition, read-out: Cytotoxicity IC50 ± SD
# Description: Cytotoxicity studies were performed using a colorimetric assay that measures the reduction of 3-(4,5-dimethythiazol-2-yl)-2,5-diphenyl tetrazolium bromide (MTT) (yellow in color), by mitochondrial enzyme (i.e. succinate dehydrogenase). The MTT enters into the mitochondria of cell, where it is reduced to an insoluble formazan salt (purple in color). The extent of MTT reduction to formazan within cells was measured spectrophotometrically. As reduction of MTT can only occur in metabolically active cells the level of activity is actually a measure of the viability of the cells^22.
# Mouse fibroblast cell line 3T3 was cultured in DMEM, supplemented with 5% of FBS, 100 IU/ml of penicillin and 100 μg/ml of streptomycin, and kept at 37° C. in 5% CO2 incubator. For the preparation of cell culture 100 μL/well of cell solution (5×10^4 cells/ml) was added into 96-well plate. The plate was incubated for overnight, and fresh medium was added after the removal of old medium. The test compounds were also added in different concentrations into the plate and plate was again incubated for 48 hrs. After the completion of this incubation period 200 μL MTT (0.5 mg/ml) was added and plate was again incubated for 4 hrs, after this final incubation 100 μL of DMSO was added to each well. The level of MTT reduction to formazan was evaluated by change in absorbance at 540 nm using a micro plate reader (Spectra Max plus, Molecular Devices, CA, USA).
# [4] = biological target: T3, Bovine Carbonic Anhydrase-II (Bos taurus, UniProt P00921); assay: Kinetics studies (Lineweaver-Burk, Dixon plots) against Bovine Carbonic Anhydrase-II; format: biochemical; set-up: Vmax app: unit not given here
# T3 construct: pure bovine erythrocyte CA-II; from tissue; host or cells: bovine erythrocytes
# Description: FIG. 2B depicts the double reciprocal plot for Ki determination which is between Slope Vs Inhibitor Conc.
# FIG. 3B depicts the double reciprocal plot for Ki determination which is between Slope Vs Inhibitor Conc.
# Kinetics studies were performed for each analogue. […] The Grafit version 7.0 was used for the construction of Lineveawer-Burk plots and their secondary replots.
# T3 sequence (P00921 whole entry): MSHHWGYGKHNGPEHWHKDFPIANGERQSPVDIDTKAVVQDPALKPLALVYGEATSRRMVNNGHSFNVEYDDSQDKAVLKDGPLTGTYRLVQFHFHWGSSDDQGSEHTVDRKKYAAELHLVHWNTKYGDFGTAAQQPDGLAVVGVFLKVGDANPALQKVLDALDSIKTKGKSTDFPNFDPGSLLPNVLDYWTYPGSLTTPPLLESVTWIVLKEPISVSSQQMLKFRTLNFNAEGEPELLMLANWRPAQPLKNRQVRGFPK
# T1 sequence (P00921 whole entry): as above
compound,measurement,setting,value
"NS(=O)(=O)c1ccc(NC(=S)NC(=O)c2ccc(Cl)cc2Cl)cc1 [Compound 19, 2,4-Dichloro-N-(4-sulfamoylphenylcarbamothioyl)benzamide]",IC50,[1],60 ± 1 nM
same,IC50,[2],100 ± 40 nM
same,IC50 at 48 h,[3],> 30000 nM
same,Vmax app,[4]; apparent Vmax with inhibitor (0.2-0.00625 μM),12.33
same,Vmax,[4]; enzyme Vmax without inhibitor,79.36 (μM/L/min)^−1
same,Ki,"[4]; from secondary replots / Dixon plot, read-out: Ki",46 nM
